Where two headings read alike, the source gives them in different places.
What was measured:
[1] = assay type: in vivo, Rattus norvegicus; conditions: about 3.4 mg/kg difethialone per os (40% homo-, 60% hetero-stereoisomer, each racemic), mean of six rats
Procedure: About 0.525 g (±0.025 g) of rat liver is weighed out accurately and placed in a 50 mL polypropylene tube. 10 mL of acetone are added and the suspension is homogenized using an Ultra-Turrax® homogenizer/disperser for a time of about 30 seconds. The homogenizer/disperser shaft is rinsed with hot water and then twice with 20 mL of acetone in a polypropylene tube. The homogenate is centrifuged for 5 minutes at a centrifugation speed of 3000 rpm (revolutions per minute). The supernatant is collected and transferred into a test tube. The sample is subjected to evaporation under a stream of nitrogen (N2) at a temperature of 40° C. so as to form a dry extract.
1 mL of acetonitrile is added to the tube containing the dry extract so as to dissolve it. The acetonitrile solution is washed twice successively with 1 mL of hexane. The lipid-free extract is dried under a stream of nitrogen (N2) at a temperature of 40° C. and is then taken up in 0.5 mL of methanol and dissolved by vortex stirring. 0.5 mL of ultra-pure (Milli-Q) water is then added. The sample is vortex-homogenized.
1 mL of dichloromethane, then 1 mL of methanol, then 1 mL of ultra-pure (Milli-Q) water are passed through an Oasis HLB 1 cc cartridge (WAT094225, Waters). The lipid-free liver extract (1 mL of MeOH/Milli-Q H2O) containing difethialone is then loaded onto the top of the cartridge so that the liver extract penetrates through the cartridge by gravity on contact with the solid phase. 1 mL of washing solution formed from methanol and ultra-pure water in a 90/10 volume proportion is then loaded onto the top of the cartridge. The cartridge is dried by suction under vacuum connected to the bottom of the cartridge. 1 mL of eluting solution formed from dichloromethane and methanol in a 90/10 volume proportion is then loaded onto the top of the cartridge and an eluate comprising difethialone is collected at the bottom of the cartridge. The solvent of the eluate is evaporated off under a stream of nitrogen (N2) at a temperature of 40° C. The sample is taken up in 0.5 mL of acetonitrile and the acetonitrile solution containing difethialone is filtered through a 0.2 μm filter.
The composition is analysed by high-pressure liquid chromatography on a chiral column as described in point A2) above.
A solution of a mixture of homo-stereoisomer (DFN-Homo-SI) and of hetero-stereoisomer (DFN-Hetero-SI) of difethialone in a mixture of vegetable oil and 5% DMSO is administered by tube-feeding (“per os”) to 8-week-old coumaphen-sensitive rats (male and female Rattus norvegicus) weighing about 200 g. The molar proportion of homo-stereoisomer is 40% and the molar proportion of hetero-stereoisomer is 60%. Each configurational stereoisomer of difethialone is formed from a racemic mixture of the two enantiomers of said corresponding configurational stereoisomer.
On D0, a tube-feeding solution is administered to each rat so that the amount of difethialone ingested by each rat is about 3.4 mg per kilogram of rat. To avoid haemorrhage, the rats are also treated daily by subcutaneous administration of a dose of vitamin K1 (as haemorrhage antidote) at a rate of […] per 200 g of live rat weight.
At 4 hours (H+4), 9 hours (H+9), 24 hours (H+24), 120 hours (H+120), 168 hours (H+168) and 216 hours (H+216) after tube-feeding, three male rats and three female rats anaesthetized beforehand with isoflurane are euthanized, the liver of the euthanized rats is removed, the difethialone is then extracted from the liver, the amount of each of the configurational stereoisomers of difethialone is assayed, the area under the peaks in the chromatogram obtained is measured and each configurational stereoisomer is quantified by comparison with a calibration curve. […]

[2] = assay type: in vivo, Rattus norvegicus; conditions: 48 hours after tube-feeding; about 3.4 mg/kg difethialone per os (40% homo-, 60% hetero-stereoisomer, each racemic); mean of six rats
[3] = 4 hours after tube-feeding, daily vitamin K1

| SMILES | Hepatic content [1, 3] | Hepatic content ([1]; 9 hours after tube-feeding) | Hepatic content ([1]; 24 hours after tube-feeding) | Hepatic content ([1]; 120 hours after tube-feeding) | Hepatic content ([1]; 168 hours after tube-feeding) | Hepatic content ([1]; 216 hours after tube-feeding) | Hepatic content [2] |
| --- | --- | --- | --- | --- | --- | --- | --- |
| Oc1c(C2CC(c3ccc(-c4ccc(Br)cc4)cc3)Cc3ccccc32)c(=S)oc2ccccc12 (single isomer, unassigned) [DFN-Hetero-dextro, 3-(4′-bromobiphenyl-4-yl)-1-(4-hydroxythiocoumarin-3-yl)-1,2,3,4-tetrahydronaphthalene] | 10589.5 ng/g | 12155.5 ng/g | 8102 ng/g | 5431.5 ng/g | 3011 ng/g | 4030.5 ng/g | 7974.5 ng/g |
| Oc1c(C2CC(c3ccc(-c4ccc(Br)cc4)cc3)Cc3ccccc32)c(=S)oc2ccccc12 (single isomer, unassigned) [DFN-Homo-dextro, 3-(4′-bromobiphenyl-4-yl)-1-(4-hydroxythiocoumarin-3-yl)-1,2,3,4-tetrahydronaphthalene] | 4566 ng/g | 4692.5 ng/g | 1243.5 ng/g | 192.5 ng/g | 129 ng/g | 77.5 ng/g | 720.5 ng/g |
